Results from article PMC6277767, “Broad and Region-Specific Impacts of the Synthetic Cannabinoid CP 55,940 in Adolescent and Adult Female Mouse Brains” (Frontiers in Molecular Neuroscience, 2018).

Test system: CD1 female mouse brain lipidome
Experiment: Brain-region lipid levels (HPLC/MS/MS lipidomics) 2 h after single i.p. 3 mg/kg CP 55,940 vs vehicle
Format: in vivo
Design: N-arachidonoyl phenylalanine level, Mean / N-stearoyl tryptophan level, Mean / N-stearoyl proline level, Mean / N-stearoyl leucine level, Mean / N-stearoyl phenylalanine level, Mean / N-stearoyl serine level, Mean / N-stearoyl methionine level, Mean: unit: moles per gram
Description: The Bloomington Institutional Animal Care and Use Committee of Indiana University reviewed and approved the animal procedures. Female mice from the CD1 strain were utilized to match our study examining THC’s effects on the brain lipidome ([Leishman et al., 2018]). Mice were given a single i.p. injection of either 3 mg/kg CP or 1:1:18 cremophor:ethanol:saline vehicle (please refer to the section “3 mg/kg CP Is Relevant for Synthetic Cannabinoid Abuse and Has Stronger Effects on the Female Mouse Brain Lipidome During Adolescence” for a justification of dose and use of female mice). Three different age groups were given injections: PND 35 and PND 50 adolescents, and adult mice (PND 113). At least eight mice in each age group received CP and at least eight received vehicle. Matching the THC study time course ([Leishman et al., 2018]), mice were sacrificed via rapid decapitation 2 h after injection. Brains were immediately removed and flash-frozen in liquid nitrogen, and then stored at -80°C until dissections were performed. Brains were dissected on an ice-cold dissection plate into the following regions: STR, HIPP, CER, THAL, CTX, HYP, MID, and STEM. These abbreviations for these brain areas will be used exclusively when discussing the results generated by these specific dissections. Each dissected area was immediately placed in liquid nitrogen and then stored at -80°C until used for lipid extraction.
Tissue extracts were performed as previously described ([Bradshaw et al., 2006]; [Stuart et al., 2013]; [Raboune et al., 2014]; [Leishman et al., 2016a],[b], [2017], [2018]). First, samples were shock frozen in liquid nitrogen, weighed, and transferred to a centrifuge tube. The mass of the largest sample was multiplied by 50 to determine how many milliliters of HPLC-grade methanol (Fisher, Fair Lawn, NJ, United States) to add. Then, samples were spiked with 500 pmol deuterium-labeled NAGly (d8NAGly; Cayman Chemical, Ann Arbor, MI, United States). Samples were placed on ice in darkness for 2 h then individually homogenized and centrifuged at 19,000 × g for 20 min at 20°C. Supernatants were diluted with HPLC water (purified in house) to make a solution of 75% water, 25% supernatant. Lipids were partially purified on C18 solid phase extraction columns (Agilent, Palo Alto, CA, United States). A series of four elutions with 1.5 mL of 60%, 75%, 85%, and 100% methanol were collected ([Stuart et al., 2013]; [Leishman et al., 2016a],[b], [2018]).
As previously described ([Bradshaw et al., 2006]; [Tan et al., 2006]; [Smoum et al., 2010]; [Stuart et al., 2013]; [Tortoriello et al., 2013]; [Raboune et al., 2014]; [Leishman et al., 2016a],[b], [2017], [2018]), samples were analyzed using an Applied Biosystems API 3000 triple quadrupole mass spectrometer with electrospray ionization (Foster City, CA, United States). Using an Agilent XDB-C18 reversed phase analytical column and optimized mobile phase gradients, 20 μL from each elution were chromatographed. Two Shimadzu 10ADvp pumps (Columbia, MD, United States) provided the pressure for gradient elution. Mobile phase A: 20% methanol, 80% water (v/v) and 1 mM ammonium acetate (Sigma, St. Louis, MO, United States). Mobile phase B: 100% methanol, 1 mM ammonium acetate. Every method run began with 0% mobile phase B, reached 100% mobile phase B flowing at 0.2 mL/min, and gradually returned to 0% mobile phase B.
This screening library will be referred to as the lipidome when discussing data from this study. HPLC/MS/MS data were analyzed using Analyst software (Applied Biosystems) ([Bradshaw et al., 2006]; [Tan et al., 2006]; [Stuart et al., 2013]; [Tortoriello et al., 2013]; [Raboune et al., 2014]; [Leishman et al., 2016a],[b], [2017], [2018]). Chromatograms (Supplementary Figure 3) were generated by determining the retention time of analytes from the analytical column with a [M-1] or [M+1] parent peak and a fragmentation peak corresponding to the programmed values. […]

[1] = adult brainstem, 3mg/kg CP 55,940

Compound: CCCCCCC(C)(C)c1ccc([C@@H]2C[C@H](O)CC[C@H]2CCCO)c(O)c1 [CP 55,940]
- N-stearoyl serine level vs vehicle (adult HIPP): ↓ (1-1.49 times lower than vehicle)
- PGE2 level vs vehicle (adult HIPP): ↑ (1-1.49 times higher than vehicle)
- PGE2 mean level in CP group divided by vehicle group (adult HIPP): 1.18
- PGF2α level vs vehicle (adult HIPP): ↑ (1-1.49 times higher than vehicle)
- number of lipids changed (adult HIPP): 12
- phosphoLEA level vs vehicle (adult HIPP): ↑ (1-1.49 times higher than vehicle)
- PGE2 mean level (adult HIPP, CP group): 3.37x10^-10 moles per gram
- 6-ketoPGF1α level vs vehicle (adult HYP): ↓↓ (1.50-1.99 times lower than vehicle)
- N-arachidonoyl GABA level vs vehicle (adult HYP): ↓ (1-1.49 times lower than vehicle)
- N-arachidonoyl taurine level vs vehicle (adult HYP): ↑ (1-1.49 times higher than vehicle)
- N-palmitoyl phenylalanine level vs vehicle (adult HYP): ↑↑ (1.50-1.99 times higher than vehicle)
- PGE2 level vs vehicle (adult HYP): ↑ (1-1.49 times higher than vehicle)
- PGF2α level vs vehicle (adult HYP): ↓ (1-1.49 times lower than vehicle)
- number of lipids changed (adult HYP): 7
- phosphoLEA level vs vehicle (adult HYP): ↓ (1-1.49 times lower than vehicle)
- 2-arachidonoyl glycerol level vs vehicle (adult MID): ↓ (1-1.49 times lower than vehicle)
- 2-linoleoyl glycerol level vs vehicle (adult MID): ↓ (1-1.49 times lower than vehicle)
- 2-oleoyl glycerol level vs vehicle (adult MID): ↓ (1-1.49 times lower than vehicle)
- 6-ketoPGF1α level vs vehicle (adult MID): ↑ (1-1.49 times higher than vehicle)
- Arachidonic acid level vs vehicle (adult MID): ↓ (1-1.49 times lower than vehicle)
- N-arachidonoyl ethanolamine level vs vehicle (adult MID): ↓ (1-1.49 times lower than vehicle)
- N-arachidonoyl serine level vs vehicle (adult MID): ↓↓ (1.50-1.99 times lower than vehicle)
- N-linoleoyl glycine level vs vehicle (adult MID): ↓↓ (1.50-1.99 times lower than vehicle)
- N-linoleoyl serine level vs vehicle (adult MID): ↓ (1-1.49 times lower than vehicle)
- N-palmitoyl ethanolamine level vs vehicle (adult MID): ↓ (1-1.49 times lower than vehicle)
- N-stearoyl ethanolamine level vs vehicle (adult MID): ↑ (1-1.49 times higher than vehicle)
- PGE2 level vs vehicle (adult MID): ↑ (1-1.49 times higher than vehicle)
- changes in lipid levels that were decreases (adult MID): 10
- changes in lipid levels that were increases (adult MID): 3
- percentage of lipids detected that decreased (adult MID): 18.52%
- percentage of lipids detected that increased (adult MID): 5.55%
- phosphoLEA level vs vehicle (adult MID): ↓ (1-1.49 times lower than vehicle)
- number of lipids changed (adult MID, 54 detected): 13
- 2-arachidonoyl glycerol level vs vehicle (adult STEM): ↓ (1-1.49 times lower than vehicle)
- 2-linoleoyl glycerol level vs vehicle (adult STEM): ↓ (1-1.49 times lower than vehicle)
- 2-oleoyl glycerol level vs vehicle (adult STEM): ↓ (1-1.49 times lower than vehicle)
- 2-palmitoyl glycerol level vs vehicle (adult STEM): ↓ (1-1.49 times lower than vehicle)
- Arachidonic acid level vs vehicle (adult STEM): ↓ (1-1.49 times lower than vehicle)
- Linoleic acid level vs vehicle (adult STEM): ↓ (1-1.49 times lower than vehicle)
- N-arachidonoyl taurine level vs vehicle (adult STEM): ↓ (1-1.49 times lower than vehicle)
- N-arachidonoyl tyrosine level vs vehicle (adult STEM): ↓↓ (1.50-1.99 times lower than vehicle)
- N-oleoyl ethanolamine level vs vehicle (adult STEM): ↓ (1-1.49 times lower than vehicle)
- N-palmitoyl leucine level vs vehicle (adult STEM): ↑ (1-1.49 times higher than vehicle)
- N-palmitoyl valine level vs vehicle (adult STEM): ↑ (1-1.49 times higher than vehicle)
- Oleic Acid level vs vehicle (adult STEM): ↓ (1-1.49 times lower than vehicle)
- PGE2 level vs vehicle (adult STEM): ↓ (1-1.49 times lower than vehicle)
- number of lipids changed (adult STEM): 13
- 2-arachidonoyl glycerol level vs vehicle (adult STR): ↓ (1-1.49 times lower than vehicle)
- Arachidonic acid level vs vehicle (adult STR): ↓ (1-1.49 times lower than vehicle)
- N-arachidonoyl ethanolamine level vs vehicle (adult STR): ↓↓ (1.50-1.99 times lower than vehicle)
- N-docosahexaenoyl ethanolamine level vs vehicle (adult STR): ↓ (1-1.49 times lower than vehicle)
- N-linoleoyl ethanolamine level vs vehicle (adult STR): ↓ (1-1.49 times lower than vehicle)
- N-oleoyl ethanolamine level vs vehicle (adult STR): ↓↓ (1.50-1.99 times lower than vehicle)
- N-oleoyl leucine level vs vehicle (adult STR): ↑ (1-1.49 times higher than vehicle)
- N-palmitoyl serine level vs vehicle (adult STR): ↓ (1-1.49 times lower than vehicle)
- number of lipids changed (adult STR): 8
- 2-arachidonoyl glycerol level vs vehicle (adult THAL): ↓ (1-1.49 times lower than vehicle)
- 2-linoleoyl glycerol level vs vehicle (adult THAL): ↓ (1-1.49 times lower than vehicle)
- 6-ketoPGF1α level vs vehicle (adult THAL): ↑ (1-1.49 times higher than vehicle)
- Arachidonic acid level vs vehicle (adult THAL): ↓ (1-1.49 times lower than vehicle)
- N-arachidonoyl GABA level vs vehicle (adult THAL): ↓ (1-1.49 times lower than vehicle)
- N-arachidonoyl alanine level vs vehicle (adult THAL): ↓↓ (1.50-1.99 times lower than vehicle)
- N-arachidonoyl ethanolamine level vs vehicle (adult THAL): ↓ (1-1.49 times lower than vehicle)
- N-arachidonoyl glycine level vs vehicle (adult THAL): ↓↓ (1.50-1.99 times lower than vehicle)
- N-oleoyl ethanolamine level vs vehicle (adult THAL): ↓ (1-1.49 times lower than vehicle)
- N-palmitoyl GABA level vs vehicle (adult THAL): ↑ (1-1.49 times higher than vehicle)
- N-palmitoyl ethanolamine level vs vehicle (adult THAL): ↓ (1-1.49 times lower than vehicle)
- N-palmitoyl leucine level vs vehicle (adult THAL): ↑ (1-1.49 times higher than vehicle)
- N-palmitoyl methionine level vs vehicle (adult THAL): ↑ (1-1.49 times higher than vehicle)
- N-palmitoyl valine level vs vehicle (adult THAL): ↑↑ (1.50-1.99 times higher than vehicle)
- Oleic Acid level vs vehicle (adult THAL): ↓ (1-1.49 times lower than vehicle)
- number of lipids changed (adult THAL): 15
- changes in PG levels (adult brain): 14
- changes in lipoamines derived from AA (adult brain): 20
- decreases in 2-acyl glycerol levels (adult brain): 15
- decreases in PG levels (adult brain): 8
- decreases in free fatty acid levels (adult brain): 11
- increases in PG levels (adult brain): 6
- percentage of detected lipids modified with acute CP (adult brain, 406 detected): 23.89%
- 2-arachidonoyl glycerol, Direction (relative to Veh) [1]: ↓
- 2-arachidonoyl glycerol, Magnitude (x Veh level) [1]: 0.78 x Veh level
- 2-linoleoyl glycerol Direction (relative to Veh) [1]: ↓
- 2-linoleoyl glycerol Magnitude (x Veh level) [1]: 0.76 x Veh level
- 2-oleoyl glycerol, Direction (relative to Veh) [1]: ↓
- 2-oleoyl glycerol, Magnitude (x Veh level) [1]: 0.82 x Veh level
- 2-palmitoyl glycerol, Direction (relative to Veh) [1]: ↓
- 2-palmitoyl glycerol, Magnitude (x Veh level) [1]: 0.80 x Veh level
- Arachidonic acid, Direction (relative to Veh) [1]: ↓
- Arachidonic acid, Magnitude (x Veh level) [1]: 0.86 x Veh level
- Linoleic acid, Direction (relative to Veh) [1]: ↓
- Linoleic acid, Magnitude (x Veh level) [1]: 0.71 x Veh level
- N-arachidonoyl GABA level, Mean [1]: 1.08E-11
- N-arachidonoyl alanine level, Mean [1]: 9.45E-13
- N-arachidonoyl dopamine level, Mean [1]: BDL
- N-arachidonoyl ethanolamine level, Mean [1]: 1.14E-11
- N-arachidonoyl glycine level, Mean [1]: 1.87E-12
- N-arachidonoyl phenylalanine level, Mean [1]: 5.84E-14
- N-arachidonoyl taurine Direction (relative to Veh) [1]: ↓
- N-arachidonoyl taurine Magnitude (x Veh level) [1]: 0.94 x Veh level
- N-arachidonoyl tyrosine, Direction (relative to Veh) [1]: ↓
- N-arachidonoyl tyrosine, Magnitude (x Veh level) [1]: 0.66 x Veh level
- N-docosahexaenoyl GABA level, Mean [1]: 7.61E-12
